# Measurements reported in US6486128B1, “Method of using emamectin to treat fish parasites” (Schering-Plough Veterinary Corporation, priority 1999, dated 2002).
# Several values for one entry are separate records, joined by “and”; a condition that tells them apart may be missing. Identical values can stand only once.
# What was measured:
# [1] = test system: sea lice, Lepeophtheirus salmonis; experiment: Dose titration study: efficacy of emamectin benzoate in feed against induced sea lice infestations on Atlantic salmon; type: in vivo; conditions: for Percentage fish mortality: mortality attributed to sea lice damage, includes culled fish
# Description: (§1) Three studies were carried out at the Institute of Aquaculture Marine Environmental Research Laboratory in Machrihanish, Scotland. Atlantic salmon, Salmo salar L., post-smolts were obtained from a disease free stock and acclimatised at the test facility.
# (§2) Fish were held in replicate groups in plastic fiber tanks, each with a volume of 0.54 m^3. Each tank was supplied with natural sea water at ambient temperature (7-14° C.) and salinity (30-35 ppt), at flow rates of approximately 18 l. min^−1. The tanks were fitted with mesh screens over the water outlet to retain uneaten fish pellets. Fish were observed daily for behavior and adverse drug reactions. Fish mortalities and the occurrence of gross sea lice damage were also recorded.
# (§3) Sea lice were collected during harvesting on commercial salmon farms on the west coast of Scotland. Egg strings collected from gravid female lice were incubated in sea water at ambient temperature and within a salinity range of 32-35 ppt. Once the hatched larvae reached the copepodite stage, 38-170 copepodites per fish were introduced into each of four replicate tanks of fish and the water supply to each tank was turned off for approximately three hours to allow attachment of copepodites to the fish. This was repeated 4-5 times at intervals of 3-5 days until chalimus stages I, II, III and IV were present. Chalimus numbers were evaluated at day −1 or day −2 pre-treatment, on sub-samples of fish (N=6-9 fish per tank). At this point, fish were infested with pre-adult and adult lice, by adding 5-10 lice per fish to each tank. Water supplies to each tank were turned off for around one hour until all the lice had attached to the fish. Pre-treatment lice numbers were based on a sub-sample of the total population and presented as the mean number of chalimus per fish. Fish were then randomly re-distributed from the four original tanks to each control or treatment tank, as described in the experimental design for each study, and no further infestations were carried out during or after treatment.
# (§4) The basal ration was Fulmar™ (BOCM Pauls Ltd.) 3.5 or 5 mm salmon feed pellets. Emamectin benzoate was dissolved in propylene glycol and mixed with fish oil prior to top coating the feed pellets. Control feeds were prepared in the same way with propylene glycol and fish oil. Treatment was administered at nominal dose rates of 0, 25, 50 and 100 μg kg^−1 fish biomass per day, at a feed rate of 0.5% biomass, for a period of seven consecutive days (days 0-6). Actual daily feed consumption was measured in each tank by collecting the uneaten feed pellets approximately thirty minutes after administration and subtracting the number of pellets from the daily ration fed. The mean dose consumed was calculated for each group as follows: [formula] Mean feed consumption (%)×nominal dose rate (μg·kg^−1)=Mean dose consumed (μg·kg^−1)
# (§5) Evaluation of sea lice numbers was carried out at 7, 14 and 21 days from the start of treatment. Fish were anaesthetised in 40 mg·l^−1 ethyl-P-aminobenzoate (benzocaine) and each fish examined under a low power microscope. Lice were identified as chalimus I-IV, pre-adult I or II and adult stages. Pre-adults and adult lice were additionally identified as males or females. The numbers of each developmental stage were recorded. Any lice which detached in the anaesthetic solution were included in the counts and reattached to the fish after transferring them to fresh seawater. The fish were returned to the holding tanks after sampling and the same fish were evaluated at days 7, 14 and 21.
# The water temperature was 7-10° C. and salinity was 33-34 ppt. Pre-treatment, mean fish weights were 192 g (±30 g S.D). Emamectin benzoate was administered at nominal daily dose rates of 0, 25, 50 and 100 μg kg^−1 fish biomass. There were two replicate tanks per treatment with a sample size of 19 or 20 fish per tank. […]
# [2] = test system: sea lice, Lepeophtheirus salmonis; experiment: Dose confirmation study I: efficacy of emamectin benzoate in feed against induced sea lice infestations on Atlantic salmon; type: in vivo; conditions: nominal dose 25 μg·kg^−1/day (consumed 20.2) in feed Day 0-6; Day 7
# Description: as §1, §2, §3, §4, §5
# The water temperature was 12-14° C. and salinity was 33-35 ppt. Pre-treatment, mean fish weights were 224 g (±43 g S.D). Emamectin benzoate was administered at nominal daily dose rates of 0, 25, and 50 μg kg^−1 biomass. There were three replicate tanks per treatment with 15 fish per tank. […]
# [3] = nominal dose 25 μg·kg^−1/day (consumed 21.5) in feed Day 0-6, Day 7
# [4] = nominal dose 25 μg·kg^−1/day (consumed 21.5) in feed Day 0-6, day 21
# [5] = nominal dose 25 μg·kg^−1/day in feed Day 0-6, Day 14
# [6] = nominal dose 25 μg·kg^−1/day in feed Day 0-6, Day 21
# [7] = nominal dose 50 μg·kg^−1/day (consumed 45.0) in feed Day 0-6, Day 7
# [8] = nominal dose 50 μg·kg^−1/day (consumed 45.0) in feed Day 0-6, day 21
# [9] = nominal dose 50 μg·kg^−1/day in feed Day 0-6, Day 14
# [10] = nominal dose 50 μg·kg^−1/day in feed Day 0-6, Day 21
# [11] = nominal dose 100 μg·kg^−1/day (consumed 91.0) in feed Day 0-6, Day 7
# [12] = nominal dose 100 μg·kg^−1/day (consumed 91.0) in feed Day 0-6, day 21
# [13] = nominal dose 100 μg·kg^−1/day in feed Day 0-6, Day 14
# [14] = nominal dose 100 μg·kg^−1/day in feed Day 0-6, Day 21
substance,measurement,setting,value
emamectin benzoate,reduction of total numbers of lice per fish compared to the control groups,"[1]; all treatment groups (25, 50, 100 μg kg^−1), day 7",35.4-37.5%
same,% Reduction relative to controls (Total lice),[1]; [3],36.2%
same,Mean Total lice (± S.D),[1]; [3],32.6 ± 10.7
same,Mean chalimus (± S.D),[1]; [3],20.9 ± 8.6
same,Mean motiles (± S.D),[1]; [3],11.7 ± 6.0
same,% Reduction relative to controls (Total lice),"[1]; nominal dose 25 μg·kg^−1/day (consumed 21.5) in feed Day 0-6, Day 21",89.8%
same,Percentage of fish with no lice present (chalimus or motiles),[1]; [4],13.8%
same,Percentage of fish with no motile lice present,[1]; [4],55.0%
same,% Reduction relative to controls (Total lice),[1]; [5],70.8%
same,Mean Total lice (± S.D),[1]; [5],13.1 ± 6.9
same,Mean chalimus (± S.D),[1]; [5],9.7 ± 3.9
same,Mean motiles (± S.D),[1]; [5],3.4 ± 6.4
same,Mean Total lice (± S.D),[1]; [6],3.5 ± 2.7
same,Mean chalimus (± S.D),[1]; [6],2.4 ± 1.9
same,Mean motiles (± S.D),[1]; [6],1.1 ± 2.2
same,Percentage fish mortality,[1]; nominal dose 25 μg·kg^−1/day,0%
same,% Reduction relative to controls (Total lice),[1]; [7],37.5%
same,Mean Total lice (± S.D),[1]; [7],31.9 ± 11.4
same,Mean chalimus (± S.D),[1]; [7],24.8 ± 10.3
same,Mean motiles (± S.D),[1]; [7],7.1 ± 4.1
same,% Reduction relative to controls (Total lice),"[1]; nominal dose 50 μg·kg^−1/day (consumed 45.0) in feed Day 0-6, Day 21",95.2%
same,Percentage of fish with no lice present (chalimus or motiles),[1]; [8],22.5%
same,Percentage of fish with no motile lice present,[1]; [8],87.5%
same,% Reduction relative to controls (Total lice),[1]; [9],70.3%
same,Mean Total lice (± S.D),[1]; [9],13.4 ± 5.9
same,Mean chalimus (± S.D),[1]; [9],12.4 ± 3.5
same,Mean motiles (± S.D),[1]; [9],1.0 ± 1.2
same,Mean Total lice (± S.D),[1]; [10],1.7 and 1.7 ± 1.3
same,Mean chalimus (± S.D),[1]; [10],1.6 ± 1.5
same,Mean motiles (± S.D),[1]; [10],0.1 ± 0.3
same,Percentage fish mortality,[1]; nominal dose 50 μg·kg^−1/day,0%
same,% Reduction relative to controls (Total lice),[1]; [11],35.4%
same,Mean Total lice (± S.D),[1]; [11],33.0 ± 10.7
same,Mean chalimus (± S.D),[1]; [11],29.0 ± 9.8
same,Mean motiles (± S.D),[1]; [11],4.0 ± 3.6
same,% Reduction relative to controls (Total lice),"[1]; nominal dose 100 μg·kg^−1/day (consumed 91.0) in feed Day 0-6, Day 21",95.8%
same,Percentage of fish with no lice present (chalimus or motiles),[1]; [12],28.2%
same,Percentage of fish with no motile lice present,[1]; [12],87.0%
same,% Reduction relative to controls (Total lice),[1]; [13],66.4%
same,Mean Total lice (± S.D),[1]; [13],15.1 ± 5.8
same,Mean chalimus (± S.D),[1]; [13],14.1 ± 5.5
same,Mean motiles (± S.D),[1]; [13],1.0 ± 3.2
same,Mean Total lice (± S.D),[1]; [14],1.5 ± 1.6
same,Mean chalimus (± S.D),[1]; [14],1.2 ± 1.2
same,Mean motiles (± S.D),[1]; [14],0.3 ± 1.0
same,Percentage fish mortality,[1]; nominal dose 100 μg·kg^−1/day,2.5%
same,mean numbers of motile lice in the treated groups,"[1]; treated groups (25, 50, 100 μg kg^−1), day 21",0.1-1.1 per fish
same,% Reduction relative to controls (Total lice),[2],43.8%
same,Mean Total lice (± S.D),[2],34.2 ± 15.8
same,Mean chalimus (± S.D),[2],1.8 ± 1.7
same,Mean motiles (± S.D),[2],32.4 ± 15.4
